Series [1] can be described thus: Selectivity index, ratio of CC50 for cytotoxicity against C57BL/6 mouse bone marrow monocytes to IC50 for anti-osteoclastogensis in C57BL/6 mouse bone marrow monocytes assessed as inhibition of RANKL/M-CSF induced osteoclastogenesis. The class given is cell-based, Monocyte. The note with it: read-out: Ratio CC50/IC50.
The subject of series [2] is RAW264.7. Description: Inhibition of RANKL-induced MAPK signaling in mouse RAW264.7 cells assessed as inhibition of JNK1/2 phosphorylation incubated for 60 mins in presence of RANKL by Western blot analysis. The class given is cell-based. The conditions noted are these: dose 5-10 µM.
Series [3] has as its system RAW264.7. As to the kind of experiment: Inhibition of RANKL-induced MAPK signaling in mouse RAW264.7 cells assessed as inhibition of ERK1/2 phosphorylation incubated for 60 mins in presence of RANKL by Western blot analysis. The class given is cell-based. The note with it: dose 5-10 µM.
Series [4] deals with RAW264.7. Description: Inhibition of RANKL-induced NFkappaB signaling in mouse RAW264.7 cells assessed as inhibition of NFkappab nuclear translocation at 10 uM incubated for 60 mins in presence of RANKL by Western blot analysis. The class given is cell-based.
Series [5] deals with Monocyte. Description: Anti-osteoclastogensis in C57BL/6 mouse bone marrow monocytes assessed as inhibition of RANKL/M-CSF induced osteoclastogenesis at 10 uM incubated for 5 days. The class given is functional, cell-based. The note with it: C57BL/6, Monocyte, 120 h.
A short description of series [6]: Cytotoxicity against C57BL/6 mouse bone marrow monocytes assessed as reduction in cell viability incubated for 48 hrs by MTT assay. The class given is toxicity, cell-based, Monocyte. A general note: Tetrazolium dyes change colour on reduction, which living cells bring about.
In series [7] the test system is Monocyte. As to the kind of experiment: Anti-osteoclastogensis in C57BL/6 mouse bone marrow monocytes assessed as inhibition of RANKL/M-CSF induced osteoclastogenesis at 10 uM incubated for 5 days relative to control. The conditions noted are these: C57BL/6, Monocyte, 120 h, time 5 day. The class given is functional.
Series [8] concerns RAW264.7. Description: Inhibition of RANKL-induced MAPK signaling in mouse RAW264.7 cells assessed as inhibition of p38 phosphorylation incubated for 60 mins in presence of RANKL by Western blot analysis. The class given is cell-based. The note with it: dose 5-10 µM. On the technique in general: Immunoblotting shows a protein as a band on a membrane.

We go through 2 compounds from ChEMBL document CHEMBL5357006, “Pestanoid A, a Rearranged Pimarane Diterpenoid Osteoclastogenesis Inhibitor from a Marine Mesophotic Zone Chalinidae Sponge-Associated Fungus, Pestalotiopsis sp. NBUF145” (J Nat Prod, 2024).

What is called inhibition is the change of the read-out against control, counted positive when it falls. Usually pIC50 stands for the IC50 on a negative log10 scale, so that one unit is a factor of ten. What is called CC50 is the concentration that lowers cell viability or growth by half.

pIC50: −log10 of the molar value. The source made the active and inactive calls. The calls are words filed in the database; no cut-off is given here. Some results are limits rather than exact numbers.

Turning to `C=C[C@@]1(C)CC(=O)O[C@H]1C1=CC[C@H]2C(C)(C)CC[C@H](O)[C@]2(C)C1=O`, the selectivity ratio in series [1] is above 10. The inhibition result in the series on RAW264.7 [2], in the series with RAW264.7 [3] and in the series on RAW264.7 [8] was “Dose-Dependent Effect” throughout. Moreover, the inhibition entry with RAW264.7 [4] is “Active”. The pIC50 in the series with Monocyte [5] was 5.52. Besides, the half-maximal cytotoxic concentration (CC50) at 48 h in series [6] is above 30 µM. Besides, in the series on Monocyte [7], the inhibition at 10 µM came to 88.4%.
Turning to `C=C1CC[C@@H]2OC(=O)C=C(C[C@]3(C)CC(=O)O[C@H]3CO)C(=O)[C@]2(C)[C@@H]1C`, in series [1], the selectivity ratio is above 7. Besides, the inhibition result with RAW264.7 [2], with RAW264.7 [3] and in the series with RAW264.7 [8] was “Dose-Dependent Effect” each time. Besides, the inhibition entry with RAW264.7 [4] is “Active”. Moreover, the pIC50 in the series with Monocyte [5] is 5.38. Also, the CC50 at 48 h in series [6] is above 30 µM. Moreover, the inhibition at 10 µM in the series with Monocyte [7] came out at 75%.
